Measured values as given in patent publication US8974768B2, “Azo compounds reducing formation and toxicity of amyloid beta aggregation intermediates” (Max-Delbrueck-Centrum fuer Molekulare Medizin, priority 2010, dated 2015).
Where a name gives a salt, the structure may show the parent alone. Read-outs that look alike come from different tables or passages of the source.

Columns and labels:
Aβ1-42 peptide = Aβ1-42 peptide (Homo sapiens, UniProt P05067); assay: Thioflavin T (Thio T)-assay of Aβ aggregation; type: biochemical
in vitro = conditions: human
[1] = Detection of compounds in brain after in vivo administration; conditions: for Detection in brain after i.v. administration: B6C3 mouse, 5 mg/kg body weight i.v. once, brain samples; for Detectability after oral administration: mouse brain, oral gavage or feeding pellets; for Detection in brain after oral administration, oral gavage administration: five to seven doses over two or three days, sampling 30 min. after last application
[2] = parameters: Detection in brain after i.v. administration: key to the marks not given beside the values; conditions: mouse, in vivo
[3] = 30 μM Aβ1-42 peptide, 48 h at 37° C., vs DMSO control, read-out: ThioT: IC50

Chain of Aβ1-42 peptide (P05067 672-713): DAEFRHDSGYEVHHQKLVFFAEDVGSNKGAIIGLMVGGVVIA

SMILES	IC50 (Aβ1-42 peptide; [3])	IC50 at 48 h (in vitro)	Detection in brain after i.v. administration [1]	also measured
O=C(O)c1cc(N=Nc2ccccc2)ccc1O [A, 2-hydroxy-5-(phenyldiazenyl)benzoic acid, reference compound]	57.4 µM			
O=C(O)c1ccccc1N=Nc1ccc(O)cc1 [B, 2-((4-hydroxyphenyl)diazenyl)Benzoic acid, reference compound]	736 µM			
O=C(O)c1cc(N=Nc2ccc(-c3ccc(N=Nc4ccc(O)c(C(=O)O)c4)cc3)cc2)ccc1O [C, (5-5′-biphenyl-4,4′-diylbis(diazene-2,1-diyl)bis(2-hydroxybenzoic acid)), reference compound]	0.5 µM			
CN(C)CCCN1c2ccccc2Sc2ccc(Cl)cc21 [Chlorpromazine, Chlorpromazine hydrochloride, reference compound]		14.1 µM		
Nc1ccc(N=Nc2ccc([N+](=O)[O-])cc2)cc1 [Compound 3, 4-((4-nitrophenyl)diazenyl)aniline]	3.3 µM	> 100 µM		
Oc1ccc(N=Nc2ccccc2)cc1 [Compound 4, 4-(phenyldiazenyl)phenol]	13.2 µM	~90 µM		
Oc1ccc2ccccc2c1N=Nc1ccccn1 [Compound 5, 1-(pyridin-2-yldiazenyl)naphthalen-2-ol]	12.2 µM	> 10 µM	++	
Nc1ccc(N=Nc2cccc(N=Nc3ccc(N)cc3N)c2)c(N)c1 [Compound 6, 4,4′-1,3-phenylenebis(diazene-2,1-diyl)dibenzene-1,3-diamine]	0.9 µM	~11 µM	++	
CCNc1ccc2ccccc2c1N=Nc1ccc(N=Nc2ccccc2)cc1 [Compound 7, N-ethyl-1-((4-(-phenyldiazenyl)phenyl)diazenyl)naphthalen-2-amine]	3.1 µM	> 3 µM	++	
CN(C)c1ccc(N=Nc2ccc(N=C=S)cc2)cc1 [Compound 10, 4-((4-isothiocyanatophenyl)diazenyl)-N,N-dimethylaniline]				IC50 (Aβ1-42 peptide): 0.4 µM; Detection in brain after i.v. administration ([2]; iv, 5 mg/kg): ++; Detectability after oral administration ([2]; po): excellent; Detection in brain after oral administration, feeding pellet preparation ([2]; po): ++^a), b); Detection in brain after oral administration, oral gavage administration ([2]; po): ++^a), b); IC50 (in vitro): > 100 µM
O=S(=O)(O)c1cccc(N=Nc2ccc(Nc3ccccc3)cc2)c1 [Compound 11]	9.5 µM	> 100 µM		
Oc1ccc(N=Nc2ccccn2)c(O)c1 [Compound 12, 4-(pyridin-2-yldiazenyl)benzene-1,3-diol]	3 µM	> 1 µM	−	
O=[N+]([O-])c1ccc(N=Nc2ccc(O)cc2O)cc1 [Compound 13, 4-((4-nitrophenyl)diazenyl)benzene-1,3-diol]	1.1 µM		++	IC50 (in vitro): ~2 µM; Detectability after oral administration [1]: excellent; Detection in brain after oral administration, feeding pellet preparation ([1]; mouse, brain samples after one week feeding): ++^a), b); Detection in brain after oral administration, oral gavage administration ([1]; mouse): ++^a), b)
Oc1ccc(N=Nc2nccs2)c(O)c1 [Compound 14, 4-(thiazol-2-yldiazenyl)benzene-1,3-diol]	4.8 µM	> 3 µM	−	
Oc1ccc(N=Nc2ccccc2)c(O)c1 [Compound 15, 4-(phenyldiazenyl)benzene-1,3-diol]	2.2 µM	~31 µM		
Cc1cccc(N=Nc2cc(C=O)c(O)cc2O)c1 [Compound 16, 2,4-dihydroxy-5-(m-tolyldiazenyl)benzaldehyde]	3.3 µM	> 30 µM		
Oc1ccc(N=Nc2ncn[nH]2)c(O)c1 [Compound 17, 4-((1H-1,2,4-triazol-5-yl)diazenyl)benzene-1,3-diol]	8 µM	> 100 µM		

SMILES	IC50 (Aβ1-42 peptide; [3])	IC50 at 48 h (in vitro)	Detection in brain after i.v. administration [1]	also measured
Cc1cc(N=Nc2nccs2)c(O)cc1O [Compound 18, 4-methyl-6-(thiazol-2-yldiazenyl)benzene-1,3-diol]	2.4 µM	~13 µM	++	Detectability after oral administration [1]: excellent; Detection in brain after oral administration, oral gavage administration ([1]; mouse): ++^b)/n.d.^b)
Cc1cc(O)cc(O)c1N=Nc1ccc([N+](=O)[O-])cc1 [Compound 19, 5-methyl-4-((4-nitrophenyl)diazenyl)benzene-1,3-diol]	0.9 µM	~41 µM	++	
Oc1ccc(N=Nc2cc(Cl)ccc2Cl)c(O)c1 [Compound 20, 4-((2,5-dichlorophenyl)diazenyl)benzene-1,3-diol]	1.3 µM	~3 µM	++	
CN(C)c1ccc(N=Nc2ccccc2)cc1 [Compound 21, N,N-dimethyl-4-(phenyldiazenyl)aniline]				IC50 (Aβ1-42 peptide): 16.8 µM; IC50 (in vitro): > 100 µM
Cc1cc(O)cc(O)c1N=Nc1nccs1 [Compound 22, 5-methyl-4-(thiazol-2-yldiazenyl)benzene-1,3-diol]	2.4 µM	~101 µM	−	
O=[N+]([O-])c1ccc(N=NNc2ccc(N=Nc3ccccc3)cc2)cc1 [Compound 23, 1-(4-nitrophenyl)-3-(4-(phenyldiazenyl)phenyl)triaz-1-ene]	1.1 µM	> 30 µM		
Nc1ccc(N=Nc2ccc(Nc3ccccc3)cc2)cc1 [Compound 24, 4-((4-aminophenyl)diazenyl)-N-phenylaniline]	4.8 µM	> 30 µM		
Oc1ccc2ccccc2c1N=Nc1ccccc1 [Compound 25, 1-(phenyldiazenyl)naphthalen-2-ol]	43.9 µM			
Cc1cc(N=Nc2ccccc2C)ccc1N [Compound 26, 2-methyl-4-(o-tolyldiazenyl)aniline]	31.8 µM			
O=S(=O)(O)c1ccc(N=Nc2ccc(O)cc2O)cc1 [Compound 27, sodium 4-((2,4-dihydroxyphenyl)diazenyl)benzenesulfonate]	61.5 µM			
O=S(=O)(O)c1cc(O)c2c(N=Nc3ccc(O)cc3O)cc(S(=O)(=O)O)cc2c1 [Compound 28, 4-((2,4-dihydroxyphenyl)diazenyl)-5-hydroxynaphthalene-2,7-disulfonic acid]	19.2 µM			
O=S(=O)(O)c1ccc(O)c(N=Nc2ccc(O)cc2O)c1 [Compound 29, sodium 3-((2,4-dihydroxyphenyl)diazenyl)-4-hydroxybenzenesulfonate]	19.8 µM			
COc1ccc(N=Nc2nccs2)c(O)c1 [Compound 30, 5-methoxy-2-(thiazol-2-yldiazenyl)phenol]	27.4 µM			
O=[N+]([O-])c1ccc(N=Nc2c(O)ccc3ccccc23)cc1 [Compound 31, 1-((4-nitrophenyl)diazenyl)naphthalen-2-ol]	87.1 µM			
c1ccc(N=Nc2ccccc2)cc1 [compound 33, 1,2-diphenyldiazene, reference compound]				IC50 (Aβ1-42 peptide): 1090 µM
CCOc1ccc(N=Nc2ccc(C)cc2)cc1C [compound 34, 1-(4-ethoxy-3-methylphenyl)-2-p-tolyldiazene, reference compound]	105 µM			
